Structures can show the parent of a compound that is named as a salt. Where two headings read alike, the source gives them in different places.
Experiments:
[1] = system: Gram-positive bacteria (Staphylococcus spp, Enterococcus spp); test: Reference method (RM): disk diffusion and/or broth microdilution, S/I/R classification, Gram-positive strains; format: cell-based; details: for CLSI RM R / EUCAST RM R: number of strains resistant; for CLSI RM S / EUCAST RM S: number of strains susceptible;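 as to all read-outs here: susceptibility categories assigned with the latest EUCAST breakpoint tables or CLSI M100 29th edition breakpoints, with quality control of the reference methods following EUCAST and CLSI guidance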
[2] = system: E. coli; test: MIC of strains giving very major errors (VME); format: cell-based
[3] = system: Gram-negative bacteria (Enterobacterales, Pseudomonas, Acinetobacter); details: for RM I (strains intermediate by reference method) / RM R (strains resistant by reference method) / RM S (strains susceptible by reference method): total of 3 sites, blood cultures; for CLSI RM I / EUCAST RM I: number of strains I; for CLSI RM R / EUCAST RM R: number of strains resistant; for CLSI RM S / EUCAST RM S: number of strains susceptible
[4] = system: K. pneumoniae; test: MIC of strains giving very major errors (VME); format: cell-based
[5] = system: E. cloacae; test: MIC of strains giving very major errors (VME); format: cell-based
[6] = system: K. aerogenes; test: MIC of strains giving very major errors (VME); format: cell-based; details: strain EB 069, site 2
[7] = system: bacteria; details: by cell membrane lesions; reference [14]; cited from earlier work
[8] = system: fungi; details: by cell membrane lesions; reference [13]; cited from earlier work
[9] = system: Staphylococcus aureus; test: Vancomycin MIC by FASTgrampos kit versus broth microdilution (reference method); format: cell-based
[10] = CLSI, FASTinov, Porto, spiked blood cultures
[11] = CLSI, total of 3 sites, blood cultures
[12] = EUCAST, FASTinov, Porto, spiked blood cultures
[13] = EUCAST, total of 3 sites, blood cultures
[14] = CLSI, Hospital Ramon et Cajal, Madrid, patients blood cultures
[15] = CLSI, Hospital S. João, Porto, patients' blood cultures
[16] = EUCAST, Hospital Ramon et Cajal, Madrid, patients blood cultures
[17] = EUCAST, Hospital S. João, Porto, patients' blood cultures
[18] = CLSI, FASTinov, Porto, spiked on blood cultures
[19] = CLSI, Hospital Ramon et Cajal, Madrid, patients' blood cultures
[20] = EUCAST, FASTinov, Porto, spiked on blood cultures
[21] = EUCAST, Hospital Ramon et Cajal, Madrid, patients' blood cultures
[22] = Klebsiella pneumoniae, strain EB 033, site 2, read-out: MIC

Gentamicin
RM R (strains resistant by reference method) [1, 10]: 15 | RM S (strains susceptible by reference method) [1, 10]: 51 | RM R (strains resistant by reference method) [1, 11]: 54 | RM S (strains susceptible by reference method) [1, 11]: 147 | RM R (strains resistant by reference method) [1, 12]: 29 | RM S (strains susceptible by reference method) [1, 12]: 37 | RM R (strains resistant by reference method) [1, 13]: 70 | RM S (strains susceptible by reference method) [1, 13]: 131 | CLSI RM R [1, 14]: 15 | CLSI RM R [1, 15]: 24 | EUCAST RM R [1, 16]: 17 | EUCAST RM R [1, 17]: 24 | CLSI RM S [1, 14]: 28 | CLSI RM S [1, 15]: 68 | EUCAST RM S [1, 16]: 26 | EUCAST RM S [1, 17]: 68 | MIC ([2]; strain EB 286, site 3): 8 µg/mL | RM I (strains intermediate by reference method) ([3]; CLSI): 6 | RM R (strains resistant by reference method) ([3]; CLSI): 77 | RM S (strains susceptible by reference method) ([3]; CLSI): 262 | RM R (strains resistant by reference method) ([3]; EUCAST): 69 | RM S (strains susceptible by reference method) ([3]; EUCAST): 194 | CLSI RM I [3, 18]: 3 | CLSI RM I [3, 19]: 1 | CLSI RM I [3, 15]: 2 | CLSI RM R [3, 18]: 60 | CLSI RM R [3, 19]: 9 | CLSI RM R [3, 15]: 8 | EUCAST RM R [3, 20]: 47 | EUCAST RM R [3, 21]: 10 | EUCAST RM R [3, 17]: 12 | CLSI RM S [3, 18]: 120 | CLSI RM S [3, 19]: 70 | CLSI RM S [3, 15]: 72 | EUCAST RM S [3, 20]: 64 | EUCAST RM S [3, 21]: 65 | EUCAST RM S [3, 17]: 65

Piperacillin-tazobactam
MIC (mg/L) ([2]; strain EB 718, site 1): >128/4 | MIC ([4]; strain EB 101, site 1): 64 µg/mL | MIC (mg/L) ([5]; strain EB 123, site 1): 64/4 | MIC (mg/L) [6]: 64/4 | RM I (strains intermediate by reference method) ([3]; CLSI): 13 | RM R (strains resistant by reference method) ([3]; CLSI): 95 | RM S (strains susceptible by reference method) ([3]; CLSI): 237 | RM I (strains intermediate by reference method) ([3]; EUCAST): 51 | RM R (strains resistant by reference method) ([3]; EUCAST): 86 | RM S (strains susceptible by reference method) ([3]; EUCAST): 177 | CLSI RM I [3, 18]: 6 | CLSI RM I [3, 19]: 7 | EUCAST RM I [3, 20]: 49 | EUCAST RM I [3, 21]: 2 | CLSI RM R [3, 18]: 87 | CLSI RM R [3, 19]: 2 | CLSI RM R [3, 15]: 6 | EUCAST RM R [3, 20]: 71 | EUCAST RM R [3, 21]: 9 | EUCAST RM R [3, 17]: 6 | CLSI RM S [3, 18]: 90 | CLSI RM S [3, 19]: 71 | CLSI RM S [3, 15]: 76 | EUCAST RM S [3, 20]: 33 | EUCAST RM S [3, 21]: 69 | EUCAST RM S [3, 17]: 75

CO/N=C(\C(=O)N[C@@H]1C(=O)N2C(C(=O)[O-])=C(C[N+]3(C)CCCC3)CS[C@H]12)c1csc(N)n1 [Cefepime]
MIC ([2]; Escherichia coli, strain EB 022, site 2, read-out: MIC): 4 µg/mL | MIC ([2]; Escherichia coli, strain EB 052, site 2, read-out: MIC): 64 µg/mL | MIC [4, 22]: 32 µg/mL

CC(C)(O/N=C(\C(=O)N[C@@H]1C(=O)N2C(C(=O)[O-])=C(C[n+]3ccccc3)CS[C@H]12)c1csc(N)n1)C(=O)O [Ceftazidime]
MIC [4, 22]: 32 µg/mL | MIC ([5]; Enterobacter cloacae, strain EB 1168, site 1): 32 µg/mL | MIC ([6]; Klebsiella aerogenes): 16 µg/mL | RM I (strains intermediate by reference method) ([3]; CLSI): 4 | RM R (strains resistant by reference method) ([3]; CLSI): 115 | RM S (strains susceptible by reference method) ([3]; CLSI): 194 | RM I (strains intermediate by reference method) ([3]; EUCAST): 34 | RM R (strains resistant by reference method) ([3]; EUCAST): 119 | RM S (strains susceptible by reference method) ([3]; EUCAST): 159 | CLSI RM I [3, 18]: 3 | CLSI RM I [3, 19]: 1 | EUCAST RM I [3, 20]: 29 | EUCAST RM I [3, 21]: 3 | EUCAST RM I [3, 17]: 2 | CLSI RM R [3, 18]: 94 | CLSI RM R [3, 19]: 13 | CLSI RM R [3, 15]: 8 | EUCAST RM R [3, 20]: 98 | EUCAST RM R [3, 21]: 15 | EUCAST RM R [3, 17]: 6 | CLSI RM S [3, 18]: 56 | CLSI RM S [3, 19]: 64 | CLSI RM S [3, 15]: 74 | EUCAST RM S [3, 20]: 26 | EUCAST RM S [3, 21]: 60 | EUCAST RM S [3, 17]: 73

CN(C)CCCOc1nn(Cc2ccccc2)c2ccccc12 [benzydamine hydrochloride]
killing of bacteria [7]: rapidly kills | killing of fungi [8]: rapidly kills

Ceftolozane-tazobactam
MIC ([4]; strain EB 032, site 3): 4 µg/mL | MIC ([4]; strain EB 101, site 1): >32 µg/mL | MIC ([4]; strain EB 677, site 1): 16 µg/mL | MIC ([4]; strain EB 679, site 1): >32 µg/mL | RM I (strains intermediate by reference method) ([3]; CLSI): 5 | RM R (strains resistant by reference method) ([3]; CLSI): 40 | RM S (strains susceptible by reference method) ([3]; CLSI): 267 | RM R (strains resistant by reference method) ([3]; EUCAST): 45 | RM S (strains susceptible by reference method) ([3]; EUCAST): 267 | CLSI RM I [3, 18]: 4 | CLSI RM I [3, 15]: 1 | CLSI RM R [3, 18]: 37 | CLSI RM R [3, 19]: 3 | EUCAST RM R [3, 20]: 41 | EUCAST RM R [3, 21]: 3 | EUCAST RM R [3, 17]: 1 | CLSI RM S [3, 18]: 112 | CLSI RM S [3, 19]: 75 | CLSI RM S [3, 15]: 80 | EUCAST RM S [3, 20]: 112 | EUCAST RM S [3, 21]: 75 | EUCAST RM S [3, 17]: 80

CN[C@H](CC(C)C)C(=O)N[C@H]1C(=O)N[C@@H](CC(N)=O)C(=O)N[C@H]2C(=O)N[C@H]3C(=O)N[C@H](C(=O)N[C@H](C(=O)O)c4cc(O)cc(O)c4-c4cc3ccc4O)[C@H](O)c3ccc(c(Cl)c3)Oc3cc2cc(c3O[C@@H]2O[C@H](CO)[C@@H](O)[C@H](O)[C@H]2O[C@H]2C[C@](C)(N)[C@H](O)[C@H](C)O2)Oc2ccc(cc2Cl)[C@H]1O [Vancomycin]
RM I (strains intermediate by reference method) [1, 10]: 3 | RM R (strains resistant by reference method) [1, 10]: 7 | RM S (strains susceptible by reference method) [1, 10]: 100 | RM I (strains intermediate by reference method) [1, 11]: 3 | RM R (strains resistant by reference method) [1, 11]: 8 | RM S (strains susceptible by reference method) [1, 11]: 254 | RM R (strains resistant by reference method) [1, 12]: 10 | RM S (strains susceptible by reference method) [1, 12]: 100 | RM R (strains resistant by reference method) [1, 13]: 11 | RM S (strains susceptible by reference method) [1, 13]: 254 | CLSI RM R [1, 15]: 1 | EUCAST RM R [1, 17]: 1 | CLSI RM S [1, 14]: 56 | CLSI RM S [1, 15]: 98 | EUCAST RM S [1, 16]: 56 | EUCAST RM S [1, 17]: 98 | number of S. aureus strains in MIC distribution ([9]; MIC by FASTgrampos 0.25 mg/L, MIC by microdilution 0.25 mg/L): 2 | number of S. aureus strains in MIC distribution ([9]; MIC by FASTgrampos 0.25 mg/L, MIC by microdilution 0.5 mg/L): 15 | number of S. aureus strains in MIC distribution ([9]; MIC by FASTgrampos 0.5 mg/L, MIC by microdilution 0.5 mg/L): 21 | number of S. aureus strains in MIC distribution ([9]; MIC by FASTgrampos 0.5 mg/L, MIC by microdilution 1 mg/L): 10 | number of S. aureus strains in MIC distribution ([9]; MIC by FASTgrampos 1 mg/L, MIC by microdilution 0.5 mg/L): 3 | number of S. aureus strains in MIC distribution ([9]; MIC by FASTgrampos 1 mg/L, MIC by microdilution 1 mg/L): 7 | number of S. aureus strains in MIC distribution ([9]; MIC by FASTgrampos 2 mg/L, MIC by microdilution 1 mg/L): 3 | number of S. aureus strains in MIC distribution ([9]; MIC by FASTgrampos 2 mg/L, MIC by microdilution 2 mg/L): 2
